According to the kinase profiling compilation of Christmann-Franck et al. (2016):

Tests used:
Assay in all cases: KINOMEscan competition binding
Conditions in all cases: compound 1.0 µM
CAMKK1 (human) = CAMKK1 (human) (UniProt Q8N5S9)
ACVR1 (human) = ACVR1 (human) (UniProt Q04771)
[1] = biological target: JAK3 JH1 catalytic (human) (UniProt P52333)
EIF2AK1 (human) = EIF2AK1 (human) (UniProt Q9BQI3)
MAPK12 (human) = MAPK12 (human) (UniProt P53778)
BMX (human) = BMX (human) (UniProt P51813)
PRKACB (human) = PRKACB (human) (UniProt P22694)
TSSK1B (human) = TSSK1B (human) (UniProt Q9BXA7)
CDC2L2 (human) = CDC2L2 (human) (UniProt Q9UQ88)
EIF2AK2 (human) = EIF2AK2 (human) (UniProt P19525)
RPS6KA6 KD2 (human) = RPS6KA6 KD2 (human) (UniProt Q9UK32)
PIK3C2G (human) = PIK3C2G (human) (UniProt O75747)
[2] = test system: RET (human), P07949 [M918T]
CDK3 (human) = CDK3 (human) (UniProt Q00526)
STK33 (human) = STK33 (human) (UniProt Q9BYT3)
CAMK2B (human) = CAMK2B (human) (UniProt Q13554)
MAP3K4 (human) = MAP3K4 (human) (UniProt Q9Y6R4)
STK16 (human) = STK16 (human) (UniProt O75716)
DMPK (human) = DMPK (human) (UniProt Q09013)
EPHA2 (human) = EPHA2 (human) (UniProt P29317)
PAK6 (human) = PAK6 (human) (UniProt Q9NQU5)
NTRK3 (human) = NTRK3 (human) (UniProt Q16288)
STK38 (human) = STK38 (human) (UniProt Q15208)
DAPK3 (human) = DAPK3 (human) (UniProt O43293)
[3] = test system: KIT (human), P10721 [A829P]
[4] = test system: KIT (human), P10721 [V559D]
STK38L (human) = STK38L (human) (UniProt Q9Y2H1)
NEK4 (human) = NEK4 (human) (UniProt P51957)
BLK (human) = BLK (human) (UniProt P51451)
PRKAA2 (human) = PRKAA2 (human) (UniProt P54646)
CDKL1 (human) = CDKL1 (human) (UniProt Q00532)
RPS6KA4 KD2 (human) = RPS6KA4 KD2 (human) (UniProt O75676)
CDK9 (human) = CDK9 (human) (UniProt P50750)
LATS2 (human) = LATS2 (human) (UniProt Q9NRM7)
MYO3A (human) = MYO3A (human) (UniProt Q8NEV4)
[5] = test system: EGFR (human), P00533 [L858R]
PRKCQ (human) = PRKCQ (human) (UniProt Q04759)
BMPR2 (human) = BMPR2 (human) (UniProt Q13873)
PRPF4B (human) = PRPF4B (human) (UniProt Q13523)
[6] = test system: KIT (human), P10721 [D816H]
CASK (human) = CASK (human) (UniProt O14936)
EPHA1 (human) = EPHA1 (human) (UniProt P21709)
MAP3K6 (human) = MAP3K6 (human) (UniProt O95382)
Chain of MAP3K6 (human) (O95382 whole entry, looked up): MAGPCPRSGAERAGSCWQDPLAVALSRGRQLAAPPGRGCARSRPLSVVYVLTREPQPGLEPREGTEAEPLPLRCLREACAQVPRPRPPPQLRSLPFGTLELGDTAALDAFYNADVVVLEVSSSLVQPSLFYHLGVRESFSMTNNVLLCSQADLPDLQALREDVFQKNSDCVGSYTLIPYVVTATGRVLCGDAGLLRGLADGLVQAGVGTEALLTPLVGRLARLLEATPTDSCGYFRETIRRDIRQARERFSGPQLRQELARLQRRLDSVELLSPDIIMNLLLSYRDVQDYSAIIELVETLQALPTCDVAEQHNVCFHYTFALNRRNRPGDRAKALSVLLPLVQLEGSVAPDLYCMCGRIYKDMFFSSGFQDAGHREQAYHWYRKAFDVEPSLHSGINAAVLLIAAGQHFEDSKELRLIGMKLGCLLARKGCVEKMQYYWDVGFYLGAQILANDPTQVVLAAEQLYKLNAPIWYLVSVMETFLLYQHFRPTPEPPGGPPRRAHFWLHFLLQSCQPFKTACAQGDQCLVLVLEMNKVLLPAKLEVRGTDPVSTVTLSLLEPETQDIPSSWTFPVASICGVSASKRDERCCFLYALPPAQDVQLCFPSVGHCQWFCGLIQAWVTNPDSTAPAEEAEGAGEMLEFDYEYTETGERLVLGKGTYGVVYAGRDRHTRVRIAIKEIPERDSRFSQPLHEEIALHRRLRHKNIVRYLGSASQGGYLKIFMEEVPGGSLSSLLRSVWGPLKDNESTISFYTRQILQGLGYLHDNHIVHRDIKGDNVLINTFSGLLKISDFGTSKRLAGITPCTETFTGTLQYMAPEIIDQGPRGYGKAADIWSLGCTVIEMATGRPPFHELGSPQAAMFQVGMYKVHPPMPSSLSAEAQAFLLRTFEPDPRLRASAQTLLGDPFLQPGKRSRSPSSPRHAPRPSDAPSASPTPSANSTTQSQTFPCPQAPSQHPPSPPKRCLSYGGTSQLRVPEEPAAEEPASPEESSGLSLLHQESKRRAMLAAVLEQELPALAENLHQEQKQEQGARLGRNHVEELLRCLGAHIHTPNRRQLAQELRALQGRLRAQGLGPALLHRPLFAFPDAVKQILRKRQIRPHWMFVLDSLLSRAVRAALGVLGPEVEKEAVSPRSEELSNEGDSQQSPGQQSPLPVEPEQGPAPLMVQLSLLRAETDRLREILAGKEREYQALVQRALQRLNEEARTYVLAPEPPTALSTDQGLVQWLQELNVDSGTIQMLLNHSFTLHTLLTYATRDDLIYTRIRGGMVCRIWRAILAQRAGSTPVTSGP

Chain of EIF2AK2 (human) (P19525 whole entry, looked up): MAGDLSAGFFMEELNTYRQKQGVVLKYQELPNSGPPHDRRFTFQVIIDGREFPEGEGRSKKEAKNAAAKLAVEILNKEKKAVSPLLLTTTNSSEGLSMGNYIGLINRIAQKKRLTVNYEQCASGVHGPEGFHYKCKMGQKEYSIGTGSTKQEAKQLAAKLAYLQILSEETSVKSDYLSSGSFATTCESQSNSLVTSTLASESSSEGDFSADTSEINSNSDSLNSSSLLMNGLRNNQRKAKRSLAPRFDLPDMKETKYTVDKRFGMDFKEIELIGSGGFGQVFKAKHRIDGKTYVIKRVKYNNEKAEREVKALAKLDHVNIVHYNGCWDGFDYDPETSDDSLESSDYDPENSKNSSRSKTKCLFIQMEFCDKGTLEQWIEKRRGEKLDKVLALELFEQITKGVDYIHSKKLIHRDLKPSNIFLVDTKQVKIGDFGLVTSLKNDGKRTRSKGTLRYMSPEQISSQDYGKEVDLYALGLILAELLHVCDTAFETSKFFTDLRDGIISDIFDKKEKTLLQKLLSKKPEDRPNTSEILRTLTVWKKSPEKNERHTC
Chain of PAK6 (human) (Q9NQU5 whole entry, looked up): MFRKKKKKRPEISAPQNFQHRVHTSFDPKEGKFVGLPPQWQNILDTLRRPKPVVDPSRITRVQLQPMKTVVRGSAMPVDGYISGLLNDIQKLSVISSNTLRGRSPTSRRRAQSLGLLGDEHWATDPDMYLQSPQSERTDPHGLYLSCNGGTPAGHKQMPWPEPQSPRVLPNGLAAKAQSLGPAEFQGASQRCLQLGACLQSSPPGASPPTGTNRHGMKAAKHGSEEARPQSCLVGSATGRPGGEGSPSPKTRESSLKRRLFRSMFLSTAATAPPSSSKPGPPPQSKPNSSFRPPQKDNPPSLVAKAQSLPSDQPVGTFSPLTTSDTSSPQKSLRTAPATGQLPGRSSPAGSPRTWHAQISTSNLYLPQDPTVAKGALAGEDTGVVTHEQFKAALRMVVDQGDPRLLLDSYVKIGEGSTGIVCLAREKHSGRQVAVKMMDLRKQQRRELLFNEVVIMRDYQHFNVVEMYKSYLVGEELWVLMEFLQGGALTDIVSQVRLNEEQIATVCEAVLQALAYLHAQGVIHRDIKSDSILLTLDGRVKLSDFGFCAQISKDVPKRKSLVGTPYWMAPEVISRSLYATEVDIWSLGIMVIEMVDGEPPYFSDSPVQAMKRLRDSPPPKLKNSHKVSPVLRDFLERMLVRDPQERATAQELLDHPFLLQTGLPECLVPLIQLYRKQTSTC
Chain of STK38 (human) (Q15208 whole entry, looked up): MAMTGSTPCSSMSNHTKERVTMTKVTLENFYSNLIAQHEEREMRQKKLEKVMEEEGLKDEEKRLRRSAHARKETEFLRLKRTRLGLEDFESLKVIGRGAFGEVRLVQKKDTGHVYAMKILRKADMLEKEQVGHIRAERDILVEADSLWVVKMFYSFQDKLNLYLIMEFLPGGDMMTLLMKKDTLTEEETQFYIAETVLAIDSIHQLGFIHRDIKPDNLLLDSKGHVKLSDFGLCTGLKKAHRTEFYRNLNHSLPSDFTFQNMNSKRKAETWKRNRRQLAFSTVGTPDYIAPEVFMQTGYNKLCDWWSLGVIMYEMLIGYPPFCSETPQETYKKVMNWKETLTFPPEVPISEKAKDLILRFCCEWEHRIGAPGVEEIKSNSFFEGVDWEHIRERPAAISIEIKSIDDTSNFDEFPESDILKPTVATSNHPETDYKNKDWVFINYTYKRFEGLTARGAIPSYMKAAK
Chain of TSSK1B (human) (Q9BXA7 whole entry, looked up): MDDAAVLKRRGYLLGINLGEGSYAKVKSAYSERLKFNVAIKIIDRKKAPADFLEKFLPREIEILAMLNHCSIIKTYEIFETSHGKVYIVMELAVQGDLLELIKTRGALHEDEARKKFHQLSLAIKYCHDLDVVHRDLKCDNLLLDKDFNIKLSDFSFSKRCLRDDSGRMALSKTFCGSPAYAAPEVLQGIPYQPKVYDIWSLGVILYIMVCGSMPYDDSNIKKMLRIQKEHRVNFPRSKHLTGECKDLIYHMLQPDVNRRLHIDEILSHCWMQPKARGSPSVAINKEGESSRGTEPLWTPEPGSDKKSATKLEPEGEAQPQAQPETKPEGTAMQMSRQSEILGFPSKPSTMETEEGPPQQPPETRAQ
Chain of JAK3 JH1 catalytic (human) (P52333 whole entry, looked up): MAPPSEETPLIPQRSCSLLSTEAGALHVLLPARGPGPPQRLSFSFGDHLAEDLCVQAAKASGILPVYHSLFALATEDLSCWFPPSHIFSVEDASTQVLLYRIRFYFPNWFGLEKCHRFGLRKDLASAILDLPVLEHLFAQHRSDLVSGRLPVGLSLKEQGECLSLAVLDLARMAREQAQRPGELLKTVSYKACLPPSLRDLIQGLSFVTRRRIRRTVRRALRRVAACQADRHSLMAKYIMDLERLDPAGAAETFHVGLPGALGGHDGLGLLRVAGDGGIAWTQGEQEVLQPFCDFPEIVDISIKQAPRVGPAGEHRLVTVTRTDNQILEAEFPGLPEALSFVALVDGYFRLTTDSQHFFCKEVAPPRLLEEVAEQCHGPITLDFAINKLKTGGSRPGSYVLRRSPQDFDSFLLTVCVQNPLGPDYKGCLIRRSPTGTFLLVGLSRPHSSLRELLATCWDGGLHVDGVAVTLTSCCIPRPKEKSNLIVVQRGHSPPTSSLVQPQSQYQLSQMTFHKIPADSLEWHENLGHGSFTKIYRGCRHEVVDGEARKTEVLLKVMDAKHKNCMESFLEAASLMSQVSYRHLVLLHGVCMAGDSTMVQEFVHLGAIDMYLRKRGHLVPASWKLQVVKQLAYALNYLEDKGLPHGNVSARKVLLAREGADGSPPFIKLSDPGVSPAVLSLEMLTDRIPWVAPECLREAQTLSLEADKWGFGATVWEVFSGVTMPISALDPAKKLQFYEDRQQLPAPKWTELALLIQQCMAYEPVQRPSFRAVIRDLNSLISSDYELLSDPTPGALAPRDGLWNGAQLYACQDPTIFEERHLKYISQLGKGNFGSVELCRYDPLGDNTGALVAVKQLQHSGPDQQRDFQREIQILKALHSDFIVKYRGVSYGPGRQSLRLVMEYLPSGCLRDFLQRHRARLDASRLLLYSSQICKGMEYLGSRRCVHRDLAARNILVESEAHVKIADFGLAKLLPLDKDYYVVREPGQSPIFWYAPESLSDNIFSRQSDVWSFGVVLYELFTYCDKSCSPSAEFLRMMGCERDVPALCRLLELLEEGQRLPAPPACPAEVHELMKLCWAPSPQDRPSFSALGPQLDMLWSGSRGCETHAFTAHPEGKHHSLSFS
Chain of CDK3 (human) (Q00526 whole entry, looked up): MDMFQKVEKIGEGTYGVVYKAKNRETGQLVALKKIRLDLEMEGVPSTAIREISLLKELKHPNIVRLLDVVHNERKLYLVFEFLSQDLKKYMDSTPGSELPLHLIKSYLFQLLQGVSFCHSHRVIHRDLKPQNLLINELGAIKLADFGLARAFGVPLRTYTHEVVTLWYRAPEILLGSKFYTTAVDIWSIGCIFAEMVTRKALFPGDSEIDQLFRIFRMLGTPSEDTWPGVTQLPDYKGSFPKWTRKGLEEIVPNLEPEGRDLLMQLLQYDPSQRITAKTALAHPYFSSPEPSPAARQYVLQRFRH

SMILES: Cc1cc(NC(=O)c2cccc(NC(=O)/C=C/CN(C)C)c2)ccc1Nc1nccc(-c2cccnc2)n1
- kinase still bound, per cent of control (CAMKK1 (human)): 100%
- kinase still bound, per cent of control (ACVR1 (human)): 100%
- kinase still bound, per cent of control [1]: 87%
- kinase still bound, per cent of control (EIF2AK1 (human)): 100%
- kinase still bound, per cent of control (MAPK12 (human)): 100%
- kinase still bound, per cent of control (BMX (human)): 100%
- kinase still bound, per cent of control (PRKACB (human)): 76%
- kinase still bound, per cent of control (TSSK1B (human)): 100%
- kinase still bound, per cent of control (CDC2L2 (human)): 98%
- kinase still bound, per cent of control (EIF2AK2 (human)): 82%
- kinase still bound, per cent of control (RPS6KA6 KD2 (human)): 76%
- kinase still bound, per cent of control (PIK3C2G (human)): 81%
- kinase still bound, per cent of control [2]: 90%
- kinase still bound, per cent of control (CDK3 (human)): 100%
- kinase still bound, per cent of control (STK33 (human)): 100%
- kinase still bound, per cent of control (CAMK2B (human)): 100%
- kinase still bound, per cent of control (MAP3K4 (human)): 100%
- kinase still bound, per cent of control (STK16 (human)): 61%
- kinase still bound, per cent of control (DMPK (human)): 63%
- kinase still bound, per cent of control (EPHA2 (human)): 100%
- kinase still bound, per cent of control (PAK6 (human)): 100%
- kinase still bound, per cent of control (NTRK3 (human)): 79%
- kinase still bound, per cent of control (STK38 (human)): 97%
- kinase still bound, per cent of control (DAPK3 (human)): 100%
- kinase still bound, per cent of control [3]: 69%
- kinase still bound, per cent of control [4]: 0.95%
- kinase still bound, per cent of control (STK38L (human)): 100%
- kinase still bound, per cent of control (NEK4 (human)): 79%
- kinase still bound, per cent of control (BLK (human)): 65%
- kinase still bound, per cent of control (PRKAA2 (human)): 84%
- kinase still bound, per cent of control (CDKL1 (human)): 88%
- kinase still bound, per cent of control (RPS6KA4 KD2 (human)): 74%
- kinase still bound, per cent of control (CDK9 (human)): 100%
- kinase still bound, per cent of control (LATS2 (human)): 74%
- kinase still bound, per cent of control (MYO3A (human)): 81%
- kinase still bound, per cent of control [5]: 100%
- kinase still bound, per cent of control (PRKCQ (human)): 100%
- kinase still bound, per cent of control (BMPR2 (human)): 77%
- kinase still bound, per cent of control (PRPF4B (human)): 100%
- kinase still bound, per cent of control [6]: 68%
- kinase still bound, per cent of control (CASK (human)): 100%
- kinase still bound, per cent of control (EPHA1 (human)): 99%
- kinase still bound, per cent of control (MAP3K6 (human)): 92%

SMILES: CN(C)C/C=C/C(=O)Nc1cccc(C(=O)Nc2ccc(Nc3nccc(/C(C#N)=C4\Nc5ccccc5S4)n3)cc2)c1
- kinase still bound, per cent of control (CAMKK1 (human)): 100%
- kinase still bound, per cent of control (ACVR1 (human)): 100%
- kinase still bound, per cent of control [1]: 83%
- kinase still bound, per cent of control (EIF2AK1 (human)): 100%
- kinase still bound, per cent of control (MAPK12 (human)): 100%
- kinase still bound, per cent of control (BMX (human)): 88%
- kinase still bound, per cent of control (PRKACB (human)): 100%
- kinase still bound, per cent of control (TSSK1B (human)): 100%
- kinase still bound, per cent of control (CDC2L2 (human)): 39%
- kinase still bound, per cent of control (EIF2AK2 (human)): 100%
- kinase still bound, per cent of control (RPS6KA6 KD2 (human)): 100%
- kinase still bound, per cent of control (PIK3C2G (human)): 100%
- kinase still bound, per cent of control [2]: 17%
- kinase still bound, per cent of control (CDK3 (human)): 100%
- kinase still bound, per cent of control (STK33 (human)): 100%
- kinase still bound, per cent of control (CAMK2B (human)): 100%
- kinase still bound, per cent of control (MAP3K4 (human)): 100%
- kinase still bound, per cent of control (STK16 (human)): 100%
- kinase still bound, per cent of control (DMPK (human)): 78%
- kinase still bound, per cent of control (EPHA2 (human)): 100%
- kinase still bound, per cent of control (PAK6 (human)): 100%
- kinase still bound, per cent of control (NTRK3 (human)): 97%
- kinase still bound, per cent of control (STK38 (human)): 100%
- kinase still bound, per cent of control (DAPK3 (human)): 100%
- kinase still bound, per cent of control [3]: 100%
- kinase still bound, per cent of control [4]: 11%
- kinase still bound, per cent of control (STK38L (human)): 100%
- kinase still bound, per cent of control (NEK4 (human)): 100%
- kinase still bound, per cent of control (BLK (human)): 100%
- kinase still bound, per cent of control (PRKAA2 (human)): 100%
- kinase still bound, per cent of control (CDKL1 (human)): 66%
- kinase still bound, per cent of control (RPS6KA4 KD2 (human)): 100%
- kinase still bound, per cent of control (CDK9 (human)): 100%
- kinase still bound, per cent of control (LATS2 (human)): 100%
- kinase still bound, per cent of control (MYO3A (human)): 100%
- kinase still bound, per cent of control [5]: 96%
- kinase still bound, per cent of control (PRKCQ (human)): 100%
- kinase still bound, per cent of control (BMPR2 (human)): 50%
- kinase still bound, per cent of control (PRPF4B (human)): 100%
- kinase still bound, per cent of control [6]: 100%
- kinase still bound, per cent of control (CASK (human)): 100%
- kinase still bound, per cent of control (EPHA1 (human)): 89%
- kinase still bound, per cent of control (MAP3K6 (human)): 100%
